Activity calls are given as the source filed them. The calls are words filed in the database; no cut-off is given here.

A word on the IC50: it is the concentration at which inhibition is half-maximal. Low readings indicate higher potency, high ones lower potency.

In one assay the test system is Plasmodium falciparum. As to the kind of experiment: Antimalarial activity against Plasmodium falciparum 3D7. Format: functional, organism-based.
The next assay concerns HL-60. The experiment in a line: Cytotoxicity against human HL-60 cells assessed as reduction in cell viability up to 70 uM after 48 hrs by WST-8 assay. The format is functional, cell-based. The following applies: dose microM <=70, time 48.0 hrs.
A further assay relates to Candida albicans. As to the kind of experiment: Antimicrobial activity against Candida albicans JCM1542 assessed as reduction in microbial growth up to 70 uM after 48 hrs. Format: functional, organism-based. As to conditions: dose microM <=70, time 48.0 hrs.
The next assay concerns NRK. As to the kind of experiment: Cytotoxicity against rat NRK cells infected with ts25 T-class mutant of Rous sarcoma virus Prague strain assessed as reduction in cell viability up to 70 uM after 48 hrs by WST-8 assay. Format: functional, cell-based. As to conditions: dose microM <=70, time 48.0 hrs. In general terms: Tetrazolium assays rely on reduction of a dye to a coloured formazan, in cell work by metabolically active cells.

For the next assay, the system named is Aspergillus fumigatus. As to the kind of experiment: Antimicrobial activity against Aspergillus fumigatus Af293 assessed as reduction in microbial growth up to 70 uM after 48 hrs. The format is functional, organism-based. As to conditions: dose microM <=70, time 48.0 hrs.
The subject of the next assay is Escherichia coli. The experiment in a line: Antimicrobial activity against Escherichia coli HO141 assessed as reduction in microbial growth up to 70 uM after 24 hrs. The format is functional, organism-based. The following applies: dose microM <=70, time 24.0 hrs.
A further assay relates to HeLa. As to the kind of experiment: Cytotoxicity against human HeLa cells assessed as reduction in cell viability up to 70 uM after 48 hrs by WST-8 assay. Format: functional, cell-based. As to conditions: dose microM <=70, time 48.0 hrs.
The test system of a further assay is Staphylococcus aureus. As to the kind of experiment: Antimicrobial activity against Staphylococcus aureus 209 assessed as reduction in microbial growth up to 70 uM after 24 hrs. Format: functional, organism-based. The following applies: dose microM <=70, time 24.0 hrs.
In a further assay the test system is Pyricularia oryzae. The experiment in a line: Antimicrobial activity against Pyricularia oryzae kita-1 assessed as reduction in microbial growth up to 70 uM after 48 hrs. Format: functional, organism-based. The following applies: dose microM <=70, time 48.0 hrs.

In turn, `C\C1=C/C=C\C=C\[C@H](C)CNC(=O)CC(=O)C[C@@H]2O[C@H]3[C@@H]4[C@@H](C=C[C@H]1[C@H]42)[C@@H](O)C[C@H]3O` gave an IC50 in the assay on Plasmodium falciparum of 12 µM. Besides, the result with HL-60, in the assay with Candida albicans, with NRK, with Aspergillus fumigatus, in the assay with Escherichia coli and with HeLa was inactive. Besides, the outcome with Staphylococcus aureus and with Pyricularia oryzae was inactive.

These data come from ChEMBL document CHEMBL4673303, “Heterologous Expression of the Biosynthetic Gene Cluster for Verticilactam and Identification of Analogues” (J Nat Prod, 2020).
